Patent publication US20250034136A1 (Nimbus Wadjet, Inc., priority 2023, published 2025)

What was measured:
[1] = target: WRN (BV08), human Werner helicase (Uniprot Q14191, amino acids 517-1235 with L1074F point mutation) (Homo sapiens (Human), UniProt Q14191, L1074F); assay: WRN (BV08) ADP-Glo assay; type: biochemical; settings: class symbols A-E, read-out: ADP-Glo_hWRN_IC50
[2] = system: p21 induction in HCT116 cells; assay: p21 induction in HCT116 cells; type: cell-based; settings: Homo sapiens, HCT-116, 24 h, HCT116 cells, 24 h compound incubation; read-out: P21_EC50
Method in brief: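 HCT116 cells, 2,000/well, treated 24 h at 37 °C with 11-point compound dilutions in duplicate. Fixed, then immunostained for p21 and GAPDH and read by near-IR imaging at 800/700 nm. Normalized to DMSO (low) and reference WRN inhibitor (high) controls; EC50 from non-linear regression.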

Sequence of WRN (BV08), human Werner helicase (Uniprot Q14191, amino acids 517-1235 with L1074F point mutation) (Q14191 other isoform, or with tags, fused parts or gaps L1074F (already in the parent)): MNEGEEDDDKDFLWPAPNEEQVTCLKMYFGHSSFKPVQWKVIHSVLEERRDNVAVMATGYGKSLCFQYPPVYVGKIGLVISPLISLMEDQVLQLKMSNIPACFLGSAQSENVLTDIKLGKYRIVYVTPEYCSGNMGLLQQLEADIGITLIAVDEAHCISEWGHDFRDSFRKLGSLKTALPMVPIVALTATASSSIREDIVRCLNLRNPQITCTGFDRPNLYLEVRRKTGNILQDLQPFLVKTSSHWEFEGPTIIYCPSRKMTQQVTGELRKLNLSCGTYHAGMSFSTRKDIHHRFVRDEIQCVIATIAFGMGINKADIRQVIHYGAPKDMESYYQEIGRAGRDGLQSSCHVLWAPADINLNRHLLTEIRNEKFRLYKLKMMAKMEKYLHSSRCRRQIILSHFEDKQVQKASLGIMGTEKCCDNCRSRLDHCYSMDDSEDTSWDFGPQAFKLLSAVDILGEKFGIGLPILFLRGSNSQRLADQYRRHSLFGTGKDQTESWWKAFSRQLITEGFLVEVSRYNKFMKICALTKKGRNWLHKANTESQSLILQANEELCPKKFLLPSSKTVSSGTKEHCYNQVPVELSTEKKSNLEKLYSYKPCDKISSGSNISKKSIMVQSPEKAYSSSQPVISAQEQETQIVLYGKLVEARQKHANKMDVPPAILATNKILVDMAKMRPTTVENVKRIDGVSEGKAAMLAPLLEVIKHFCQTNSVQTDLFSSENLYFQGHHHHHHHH

SMILES | IC50 [1] [µM] | EC50 [2] [µM]
CCc1c(N2CCN(C(=O)c3ncnc(C)c3O)CC2)c(=O)c2nc(N(C3CC3)C3CC3)cnc2n1CC(=O)Nc1ccc(C(F)(F)F)cc1Cl [I-179, N-[2-chloro-4-(trifluoromethyl)phenyl]-2-[2-(dicyclopropylamino)-6-ethyl-7-[4-(5-hydroxy-6-methylpyrimidine-4-carbonyl)piperazin-1-yl]-8-oxo-5H,8H-pyrido[2,3-b]pyrazin-5-yl]acetamide] | 0.005 to 0.05 | 2 to 5
CCc1c(N2CCN(C(=O)c3ncnc(C)c3O)CC2)c(=O)c2nc(C=C3CC(C)(O)C3)cnc2n1CC(=O)Nc1ccc(C(F)(F)F)cc1Cl (centres unmarked) [I-180, N-[2-chloro-4-(trifluoromethyl)phenyl]-2-{6-ethyl-2-[(3-hydroxy-3-methylcyclobutylidene)methyl]-7-[4-(5-hydroxy-6-methylpyrimidine-4-carbonyl)piperazin-1-yl]-8-oxo-5H,8H-pyrido[2,3-b]pyrazin-5-yl}acetamide] | 0.005 to 0.05 | 0.5 to 2
CCc1c(N2CCN(C(=O)c3ncnc(C)c3O)[C@H]3CC[C@@H]32)c(=O)c2nc(OC3CCC3)cnc2n1CC(=O)Nc1ccc(C(F)(F)F)cc1Cl [I-181, N-[2-chloro-4-(trifluoromethyl)phenyl]-2-{2-cyclobutoxy-6-ethyl-7-[(1S,6S)-5-(5-hydroxy-6-methylpyrimidine-4-carbonyl)-2,5-diazabicyclo[4.2.0]octan-2-yl]-8-oxo-5H,8H-pyrido[2,3-b]pyrazin-5-yl}acetamide] | 0.005 to 0.05 | < 0.5
CCc1c(N2CCN(C(=O)c3ncnc(C)c3O)[C@H]3CC[C@@H]32)c(=O)c2nc(OC)cnc2n1CC(=O)Nc1ccc(C(F)(F)F)cc1Cl [I-182, N-[2-chloro-4-(trifluoromethyl)phenyl]-2-{6-ethyl-7-[(1S,6S)-5-(5-hydroxy-6-methylpyrimidine-4-carbonyl)-2,5-diazabicyclo[4.2.0]octan-2-yl]-2-methoxy-8-oxo-5H,8H-pyrido[2,3-b]pyrazin-5-yl} acetamide] | ≤ 0.005 | < 0.5
CCc1c(N2CCN(C(=O)c3c(O)cnnc3OC)[C@H]3CC[C@@H]32)c(=O)c2nc(N(C)C)cnc2n1CC(=O)Nc1ccc(C(F)(F)F)cc1Cl [I-183, N-[2-chloro-4-(trifluoromethyl)phenyl]-2-[2-(dimethylamino)-6-ethyl-7-[(1S,6S)-5-(5-hydroxy-3-methoxypyridazine-4-carbonyl)-2,5-diazabicyclo[4.2.0]octan-2-yl]-8-oxo-5H,8H-pyrido[2,3-b]pyrazin-5-yl]acetamide] | 0.005 to 0.05 | > 5
CCc1c(N2CCN(C(=O)c3cnn(C)c3)[C@H]3CC[C@@H]32)c(=O)c2nc(N(C)C)cnc2n1CC(=O)Nc1ccc(C(F)(F)F)cc1Cl [I-184, N-[2-chloro-4-(trifluoromethyl)phenyl]-2-[2-(dimethylamino)-6-ethyl-7-[(1S,6S)-5-(1-methyl-1H-pyrazole-4-carbonyl)-2,5-diazabicyclo[4.2.0]octan-2-yl]-8-oxo-5H,8H-pyrido[2,3-b]pyrazin-5-yl]acetamide] | 0.005 to 0.05 | 2 to 5
CCc1c(N2CCN(C(=O)c3ncnc(C)c3O)C[C@@H]2C)c(=O)c2nc(N(C)C)cnc2n1CC(=O)Nc1ccc(S(F)(F)(F)(F)F)cc1Cl [I-185, N-[2-chloro-4-(pentafluoro-lambda6-sulfanyl)phenyl]-2-[2-(dimethylamino)-6-ethyl-7-[(2S)-4-(5-hydroxy-6-methylpyrimidine-4-carbonyl)-2-methylpiperazin-1-yl]-8-oxo-5H,8H-pyrido[2,3-b]pyrazin-5-yl]acetamide] | 0.005 to 0.05 | < 0.5
CCc1c(N2CCN(C(=O)c3ncnc(C)c3O)CC2)c(=O)c2nc(NCC3CC3)cnc2n1CC(=O)Nc1ccc(C(F)(F)F)cc1Cl [I-186, N-[2-chloro-4-(trifluoromethyl)phenyl]-2-{2-[(cyclopropylmethyl)amino]-6-ethyl-7-[4-(5-hydroxy-6-methylpyrimidine-4-carbonyl)piperazin-1-yl]-8-oxo-5H,8H-pyrido[2,3-b]pyrazin-5-yl}acetamide] | 0.005 to 0.05 | 2 to 5
CCc1c(N2CCN(C(=O)c3ncnc(C)c3O)C[C@@H]2C)c(=O)c2nc(N3CCC3)cnc2n1CC(=O)Nc1ccc(C(F)(F)F)cc1Cl [I-187, 2-[2-(azetidin-1-yl)-6-ethyl-7-[(2S)-4-(5-hydroxy-6-methylpyrimidine-4-carbonyl)-2-methylpiperazin-1-yl]-8-oxo-5H,8H-pyrido[2,3-b]pyrazin-5-yl]-N-[2-chloro-4-(trifluoromethyl)phenyl]acetamide] | 0.005 to 0.05 | 0.5 to 2
CCc1c(N2CCN(C(=O)c3ncnc(C)c3O)C[C@@H]2C)c(=O)c2nc(N3CC[C@H]3COC)cnc2n1CC(=O)Nc1ccc(C(F)(F)F)cc1Cl [I-188, N-[2-chloro-4-(trifluoromethyl)phenyl]-2-{6-ethyl-7-[(2S)-4-(5-hydroxy-6-methylpyrimidine-4-carbonyl)-2-methylpiperazin-1-yl]-2-[(2S)-2-(methoxymethyl)azetidin-1-yl]-8-oxo-5H,8H-pyrido[2,3-b]pyrazin-5-yl}acetamide] | 0.005 to 0.05 | 0.5 to 2
CCc1c(N2CCN(C(=O)c3ncnc(C)c3O)C[C@@H]2C)c(=O)c2nc(N3CC[C@@H]3COC)cnc2n1CC(=O)Nc1ccc(C(F)(F)F)cc1Cl [I-189, N-[2-chloro-4-(trifluoromethyl)phenyl]-2-{6-ethyl-7-[(2S)-4-(5-hydroxy-6-methylpyrimidine-4-carbonyl)-2-methylpiperazin-1-yl]-2-[(2R)-2-(methoxymethyl)azetidin-1-yl]-8-oxo-5H,8H-pyrido[2,3-b]pyrazin-5-yl}acetamide] | 0.005 to 0.05 | 0.5 to 2
CCc1c(N2CCN(C(=O)c3ncnc(C)c3O)C[C@@H]2C)c(=O)c2nc(N3CCC3)cnc2n1CC(=O)Nc1ccc(S(F)(F)(F)(F)F)cc1Cl [I-190, 2-[2-(azetidin-1-yl)-6-ethyl-7-[(2S)-4-(5-hydroxy-6-methylpyrimidine-4-carbonyl)-2-methylpiperazin-1-yl]-8-oxo-5H,8H-pyrido[2,3-b]pyrazin-5-yl]-N-[2-chloro-4-(pentafluoro-lambda6-sulfanyl)phenyl]acetamide] | 0.005 to 0.05 | < 0.5
CCc1c(N2CCN(C(=O)c3ncnc(C)c3O)C[C@@H]2CC)c(=O)c2nc(N(C)C)cnc2n1CC(=O)Nc1ccc(C(F)(F)F)cc1Cl [I-191, N-[2-chloro-4-(trifluoromethyl)phenyl]-2-[2-(dimethylamino)-6-ethyl-7-[(2S)-2-ethyl-4-(5-hydroxy-6-methylpyrimidine-4-carbonyl)piperazin-1-yl]-8-oxo-5H,8H-pyrido[2,3-b]pyrazin-5-yl]acetamide] | 0.005 to 0.05 | 0.5 to 2
CCc1c(N2CCN(C(=O)c3ncc4c(c3O)CCO4)CC2)c(=O)c2nc(N(C)C3CC3)cnc2n1CC(=O)Nc1ccc(C(F)(F)F)cc1Cl [I-194, N-[2-chloro-4-(trifluoromethyl)phenyl]-2-{2-[cyclopropyl(methyl)amino]-6-ethyl-7-(4-{4-hydroxy-2H,3H-furo[2,3-c]pyridine-5-carbonyl}piperazin-1-yl)-8-oxo-5H,8H-pyrido[2,3-b]pyrazin-5-yl}acetamide] | ≤ 0.005 | < 0.5
CCc1c(N2CCN(C(=O)c3ncnc(C)c3O)CC2)c(=O)c2nc(OC3CC3)cnc2n1CC(=O)Nc1ccc(C(F)(F)F)cc1Cl [I-195, N-[2-chloro-4-(trifluoromethyl)phenyl]-2-{2-cyclopropoxy-6-ethyl-7-[4-(5-hydroxy-6-methylpyrimidine-4-carbonyl)piperazin-1-yl]-8-oxo-5H,8H-pyrido[2,3-b]pyrazin-5-yl}acetamide] | 0.005 to 0.05 | 2 to 5
CCc1c(N2CCN(C(=O)c3ncnc(C)c3O)[C@@H](C(F)F)C2)c(=O)c2nc(N(C)C)cnc2n1CC(=O)Nc1ccc(C(F)(F)F)cc1Cl [I-197, N-[2-chloro-4-(trifluoromethyl)phenyl]-2-{7-[(3R)-3-(difluoromethyl)-4-(5-hydroxy-6-methylpyrimidine-4-carbonyl)piperazin-1-yl]-2-(dimethylamino)-6-ethyl-8-oxo-5H,8H-pyrido[2,3-b]pyrazin-5-yl}acetamide] | 0.05 to 0.1 | > 5
CCc1c(N2CCN(C(=O)c3ncnc(C)c3O)[C@H]3CC[C@@H]32)c(=O)c2nc(N(C)C)cnc2n1CC(=O)Nc1ccc(OC(F)(F)F)cc1Cl [I-199, N-[2-chloro-4-(trifluoromethoxy)phenyl]-2-[2-(dimethylamino)-6-ethyl-7-[(1S,6S)-5-(5-hydroxy-6-methylpyrimidine-4-carbonyl)-2,5-diazabicyclo[4.2.0]octan-2-yl]-8-oxo-5H,8H-pyrido[2,3-b]pyrazin-5-yl]acetamide] | 0.005 to 0.05 | < 0.5
CCc1c(N2CCN(C(=O)c3ncnc(C)c3O)[C@H]3CC[C@@H]32)c(=O)c2nc(N(C)C)cnc2n1CC(=O)Nc1ccc(S(F)(F)(F)(F)F)cc1Cl [I-200, N-[2-chloro-4-(pentafluoro-lambda6-sulfanyl)phenyl]-2-[2-(dimethylamino)-6-ethyl-7-[(1S,6S)-5-(5-hydroxy-6-methylpyrimidine-4-carbonyl)-2,5-diazabicyclo[4.2.0]octan-2-yl]-8-oxo-5H,8H-pyrido[2,3-b]pyrazin-5-yl]acetamide] | 0.005 to 0.05 | < 0.5
CCc1c(N2CCN(C(=O)c3ncnc(C)c3O)CC2)c(=O)c2nc(-n3cccn3)cnc2n1CC(=O)Nc1ccc(C(F)(F)F)cc1Cl [I-201, N-[2-chloro-4-(trifluoromethyl)phenyl]-2-{6-ethyl-7-[4-(5-hydroxy-6-methylpyrimidine-4-carbonyl)piperazin-1-yl]-8-oxo-2-(1H-pyrazol-1-yl)-5H,8H-pyrido[2,3-b]pyrazin-5-yl}acetamide] | 0.005 to 0.05 | 2 to 5
